Values after ≈ are worked out from the molar mass of the structure shown. Like-named read-outs stand apart in the source and are kept apart here.
Key:
human (hACC2) = human (hACC2) (Homo sapiens, UniProt O00763); assay: In vitro ACC inhibition assay (ADP-Glo), hACC2; type: biochemical; details: 5 nM ACC2, 20 μM ATP, 20 μM acetyl-CoA
Method: The detailed procedure is as follows. […] 10 μL ADP glo reagent was added. […] 20 μL kinase detection reagent was added.

C. parapsilosis = assay: Antifungal Activity Assay (broth microtiter MIC), C. parapsilosis; type: cell-based, Candida parapsilosis; details: Lodderomyces parapsilosis, ATCC22019, 48 h
Method in brief: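 Susceptibility was determined by CLSI M27-A3 broth microdilution in RPMI 1640 buffered with MOPS. Growth inhibition was scored visually after 48 h.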

[1] = test system: Collectotrichum graminicola (Cg); assay: Growth inhibition assay of fungal pathogens, Cg; type: cell-based; details: 48 h
Method in brief: (§1)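 Spores from sub-cultured plates were diluted in 17% V8 liquid medium and exposed to compound from DMSO stocks at final concentrations of 50, 10 and 2 ppm or 2, 0.4 and 0.08 ppm. OD600 and visual ratings at 48 h were compared with the 2% DMSO control to give percent growth inhibition.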

Diplodia maydis (Dm) = assay: Growth inhibition assay of fungal pathogens, Dm; type: cell-based; details: Stenocarpella maydis, 48 h
Method in brief: as §1

[2] = test system: Fusarium moniliforme (Fm); assay: Growth inhibition assay of fungal pathogens, Fm; type: cell-based; details: for IC90: Fusarium verticillioides, 48 h, read-out: Concentration at 90% Inhibition Fm
Method in brief: as §1

[3] = test system: Fusarium virguliforme (Fv); assay: Growth inhibition assay of fungal pathogens, Fv; type: cell-based; details: 48 h
Method in brief: as §1

[4] = test system: Phytophthora capsici (Pc); assay: Growth inhibition assay of fungal pathogens, Pc; type: cell-based; details: 48 h
Method in brief: as §1

Rhizoctonia solani (Rs) = assay: Growth inhibition assay of fungal pathogens, Rs; type: cell-based; details: 48 h
Septoria tritici (St) = assay: Growth inhibition assay of fungal pathogens, St; type: cell-based; details: Zymoseptoria tritici, 48 h
Method in brief: as §1

fungal (fACC2) = fungal (fACC2) (UniProt Q00955); details: read-out: fACC2 (in vitro ACC2 Inhibition Assay, IC50), ADP-Glo, 5 nM ACC2, 20 μM ATP, 20 μM acetyl-CoA
Chain of fungal (fACC2) (Q00955 whole entry): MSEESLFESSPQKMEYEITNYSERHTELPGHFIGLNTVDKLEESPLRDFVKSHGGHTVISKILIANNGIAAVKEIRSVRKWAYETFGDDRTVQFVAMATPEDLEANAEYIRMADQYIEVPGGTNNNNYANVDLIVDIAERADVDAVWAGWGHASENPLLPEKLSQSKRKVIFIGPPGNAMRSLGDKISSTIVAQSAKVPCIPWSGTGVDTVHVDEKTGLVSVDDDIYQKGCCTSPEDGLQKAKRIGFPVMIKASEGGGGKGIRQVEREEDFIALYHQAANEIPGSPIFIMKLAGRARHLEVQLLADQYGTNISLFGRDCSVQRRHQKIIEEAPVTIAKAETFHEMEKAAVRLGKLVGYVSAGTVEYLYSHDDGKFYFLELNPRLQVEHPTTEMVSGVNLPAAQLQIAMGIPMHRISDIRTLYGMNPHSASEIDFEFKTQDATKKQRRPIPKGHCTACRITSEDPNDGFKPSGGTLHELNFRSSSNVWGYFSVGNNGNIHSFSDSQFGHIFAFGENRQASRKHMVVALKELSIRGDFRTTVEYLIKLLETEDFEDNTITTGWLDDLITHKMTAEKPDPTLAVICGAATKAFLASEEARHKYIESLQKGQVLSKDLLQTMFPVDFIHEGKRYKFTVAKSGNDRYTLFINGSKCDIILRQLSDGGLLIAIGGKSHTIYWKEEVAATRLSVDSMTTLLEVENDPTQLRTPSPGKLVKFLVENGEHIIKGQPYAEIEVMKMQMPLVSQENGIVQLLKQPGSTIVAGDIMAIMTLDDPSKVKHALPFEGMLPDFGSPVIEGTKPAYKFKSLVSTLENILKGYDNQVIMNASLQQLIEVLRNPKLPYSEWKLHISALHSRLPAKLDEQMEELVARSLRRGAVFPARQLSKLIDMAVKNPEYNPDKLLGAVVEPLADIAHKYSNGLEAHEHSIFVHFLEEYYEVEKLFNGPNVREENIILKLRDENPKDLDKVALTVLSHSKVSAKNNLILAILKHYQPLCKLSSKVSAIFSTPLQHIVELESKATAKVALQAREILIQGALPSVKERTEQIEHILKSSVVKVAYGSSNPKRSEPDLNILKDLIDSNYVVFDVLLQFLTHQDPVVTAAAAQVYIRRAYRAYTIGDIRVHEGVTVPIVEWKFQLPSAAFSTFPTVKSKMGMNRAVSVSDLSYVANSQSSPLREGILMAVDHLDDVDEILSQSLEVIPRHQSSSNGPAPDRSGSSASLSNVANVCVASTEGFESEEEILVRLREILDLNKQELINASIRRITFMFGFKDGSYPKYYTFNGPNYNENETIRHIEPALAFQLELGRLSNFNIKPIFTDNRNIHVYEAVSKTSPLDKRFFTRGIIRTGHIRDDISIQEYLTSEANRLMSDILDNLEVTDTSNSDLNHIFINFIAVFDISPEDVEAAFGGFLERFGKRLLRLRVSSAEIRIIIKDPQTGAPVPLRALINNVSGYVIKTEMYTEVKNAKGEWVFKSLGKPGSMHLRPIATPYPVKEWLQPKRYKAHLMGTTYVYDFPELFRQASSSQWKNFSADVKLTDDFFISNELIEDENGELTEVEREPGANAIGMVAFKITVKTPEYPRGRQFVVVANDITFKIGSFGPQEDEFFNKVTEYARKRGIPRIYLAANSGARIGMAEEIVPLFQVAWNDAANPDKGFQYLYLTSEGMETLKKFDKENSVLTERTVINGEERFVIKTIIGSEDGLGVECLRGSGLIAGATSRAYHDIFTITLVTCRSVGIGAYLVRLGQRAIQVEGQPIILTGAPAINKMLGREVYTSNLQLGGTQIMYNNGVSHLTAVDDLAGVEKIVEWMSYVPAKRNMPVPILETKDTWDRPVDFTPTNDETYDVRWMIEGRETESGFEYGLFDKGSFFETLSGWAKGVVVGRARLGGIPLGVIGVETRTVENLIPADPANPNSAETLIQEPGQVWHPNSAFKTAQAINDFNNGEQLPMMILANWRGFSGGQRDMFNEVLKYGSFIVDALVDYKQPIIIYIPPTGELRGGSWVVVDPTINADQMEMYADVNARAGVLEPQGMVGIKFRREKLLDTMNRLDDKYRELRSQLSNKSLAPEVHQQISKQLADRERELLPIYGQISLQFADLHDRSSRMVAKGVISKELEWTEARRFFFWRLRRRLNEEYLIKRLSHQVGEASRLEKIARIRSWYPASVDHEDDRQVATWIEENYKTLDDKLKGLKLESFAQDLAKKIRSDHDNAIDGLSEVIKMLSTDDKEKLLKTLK

[5] = read-out: MIC, C. parapsilosis ATCC 22019, Table 3a, 3 replicates, MIC recorded at 48 h
[6] = read-out: MIC, C. parapsilosis ATCC 22019, Table 3b (additional results), 3 replicates, MIC recorded at 48 h
[7] = read-out: Concentration at 90% Inhibition Cg, Collectotrichum graminicola, growth inhibition at 48 hours vs 2% DMSO control
[8] = read-out: Concentration at 90% Inhibition Cg, Collectotrichum graminicola, growth inhibition vs 2% DMSO control at 48 hours
[9] = read-out: Concentration at 90% Inhibition Dm, Diplodia maydis, growth inhibition at 48 hours vs 2% DMSO control
[10] = read-out: Concentration at 90% Inhibition Dm, Diplodia maydis, growth inhibition vs 2% DMSO control at 48 hours
[11] = Fusarium moniliforme, growth inhibition at 48 hours vs 2% DMSO control
[12] = read-out: Concentration at 90% Inhibition Fv, Fusarium virguliforme, growth inhibition at 48 hours vs 2% DMSO control
[13] = read-out: Concentration at 90% Inhibition Fv, Fusarium virguliforme, growth inhibition vs 2% DMSO control at 48 hours
[14] = read-out: Concentration at 90% Inhibition Pc, Phytophthora capsici, growth inhibition at 48 hours vs 2% DMSO control
[15] = read-out: Concentration at 90% Inhibition Pc, Phytophthora capsici, growth inhibition vs 2% DMSO control at 48 hours
[16] = read-out: Concentration at 90% Inhibition Rs, Rhizoctonia solani, mycelial plugs, growth inhibition at 48 hours vs 2% DMSO control
[17] = read-out: Concentration at 90% Inhibition Rs, Rhizoctonia solani, mycelial plugs, growth inhibition vs 2% DMSO control at 48 hours
[18] = read-out: Concentration at 90% Inhibition St, Septoria tritici, growth inhibition at 48 hours vs 2% DMSO control
[19] = read-out: Concentration at 90% Inhibition St, Septoria tritici, growth inhibition vs 2% DMSO control at 48 hours

Chain of human (hACC2) (O00763 whole entry): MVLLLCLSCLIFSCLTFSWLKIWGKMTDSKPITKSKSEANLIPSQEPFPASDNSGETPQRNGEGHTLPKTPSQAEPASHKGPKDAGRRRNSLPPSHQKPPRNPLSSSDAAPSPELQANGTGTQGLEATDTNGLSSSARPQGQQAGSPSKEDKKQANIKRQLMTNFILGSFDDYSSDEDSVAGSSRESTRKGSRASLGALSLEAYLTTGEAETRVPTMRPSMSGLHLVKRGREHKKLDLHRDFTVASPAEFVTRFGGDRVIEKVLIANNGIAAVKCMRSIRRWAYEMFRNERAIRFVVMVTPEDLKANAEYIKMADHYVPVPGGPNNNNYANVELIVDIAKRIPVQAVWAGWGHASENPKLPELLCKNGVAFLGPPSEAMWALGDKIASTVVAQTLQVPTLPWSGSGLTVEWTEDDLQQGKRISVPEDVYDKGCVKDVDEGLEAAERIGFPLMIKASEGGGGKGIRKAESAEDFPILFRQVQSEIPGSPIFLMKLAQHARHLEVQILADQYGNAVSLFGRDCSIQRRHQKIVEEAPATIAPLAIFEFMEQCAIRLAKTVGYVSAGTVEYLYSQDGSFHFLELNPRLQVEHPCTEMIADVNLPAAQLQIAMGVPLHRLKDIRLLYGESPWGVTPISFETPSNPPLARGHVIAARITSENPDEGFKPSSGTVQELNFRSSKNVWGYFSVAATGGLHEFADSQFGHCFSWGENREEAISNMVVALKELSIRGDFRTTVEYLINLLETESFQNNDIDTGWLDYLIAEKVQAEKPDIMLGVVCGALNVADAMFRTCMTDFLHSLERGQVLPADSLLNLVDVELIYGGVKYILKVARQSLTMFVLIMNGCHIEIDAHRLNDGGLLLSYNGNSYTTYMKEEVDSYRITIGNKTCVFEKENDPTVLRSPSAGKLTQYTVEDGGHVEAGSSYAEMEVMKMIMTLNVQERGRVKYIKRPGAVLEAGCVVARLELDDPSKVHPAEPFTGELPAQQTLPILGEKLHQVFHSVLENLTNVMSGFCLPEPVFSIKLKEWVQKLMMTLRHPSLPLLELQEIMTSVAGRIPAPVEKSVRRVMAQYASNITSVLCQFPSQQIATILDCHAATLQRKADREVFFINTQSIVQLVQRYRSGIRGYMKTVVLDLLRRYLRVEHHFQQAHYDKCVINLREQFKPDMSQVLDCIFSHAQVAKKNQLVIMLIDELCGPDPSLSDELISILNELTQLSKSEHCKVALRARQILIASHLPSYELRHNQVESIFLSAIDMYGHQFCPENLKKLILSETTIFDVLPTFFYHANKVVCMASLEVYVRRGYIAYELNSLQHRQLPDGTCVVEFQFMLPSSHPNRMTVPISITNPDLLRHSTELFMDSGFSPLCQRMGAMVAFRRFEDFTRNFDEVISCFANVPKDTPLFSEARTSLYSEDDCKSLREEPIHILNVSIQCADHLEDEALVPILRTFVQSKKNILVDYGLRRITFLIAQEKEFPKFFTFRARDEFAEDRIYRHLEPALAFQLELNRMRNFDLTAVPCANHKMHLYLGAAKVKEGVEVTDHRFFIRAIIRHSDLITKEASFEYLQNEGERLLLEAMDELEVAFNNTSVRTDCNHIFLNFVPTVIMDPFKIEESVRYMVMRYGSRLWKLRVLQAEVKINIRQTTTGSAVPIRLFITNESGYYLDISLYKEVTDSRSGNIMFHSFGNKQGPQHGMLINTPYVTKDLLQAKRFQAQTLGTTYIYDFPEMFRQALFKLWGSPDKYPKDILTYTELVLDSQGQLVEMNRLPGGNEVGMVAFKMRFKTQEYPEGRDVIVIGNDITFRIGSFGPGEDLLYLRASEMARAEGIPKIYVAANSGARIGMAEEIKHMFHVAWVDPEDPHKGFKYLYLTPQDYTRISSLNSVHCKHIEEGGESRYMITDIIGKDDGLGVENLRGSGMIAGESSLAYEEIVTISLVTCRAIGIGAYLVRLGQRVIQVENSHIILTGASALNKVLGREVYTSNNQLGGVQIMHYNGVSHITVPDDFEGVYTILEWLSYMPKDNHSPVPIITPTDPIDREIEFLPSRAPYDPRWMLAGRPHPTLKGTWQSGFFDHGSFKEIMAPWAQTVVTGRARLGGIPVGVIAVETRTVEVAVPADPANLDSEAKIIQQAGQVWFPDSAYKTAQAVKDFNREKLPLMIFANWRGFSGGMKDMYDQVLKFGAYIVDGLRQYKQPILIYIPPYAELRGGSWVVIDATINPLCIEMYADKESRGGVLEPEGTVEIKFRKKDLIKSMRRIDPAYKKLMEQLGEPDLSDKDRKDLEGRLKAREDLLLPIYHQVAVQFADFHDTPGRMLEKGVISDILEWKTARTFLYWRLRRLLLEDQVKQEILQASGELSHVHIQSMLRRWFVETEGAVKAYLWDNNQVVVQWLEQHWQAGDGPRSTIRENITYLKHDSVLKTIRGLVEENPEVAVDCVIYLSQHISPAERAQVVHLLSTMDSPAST

`COc1ccc(F)cc1[C@H](Cn1c(=O)n(C(C)(C)C(=O)NC(C)C)c(=O)c2c(C)c(-n3nccn3)sc21)OC(C)C` [Compound I-4, (R)-2-(1-(2-(5-fluoro-2-methoxyphenyl)-2-isopropoxyethyl)-5-methyl-2,4-dioxo-6-(2H-1,2,3-triazol-2-yl)-1,4-dihydrothieno[2,3-d]pyrimidin-3(2H)-yl)-N-isopropyl-2-methylpropanamide] was tested, and the IC50 (human (hACC2); Table 2a) was 5 to 10 nM, the IC50 (human (hACC2); Table 2b, additional results) was 5 to 10 nM and the MIC (C. parapsilosis; [5]) was 0.25 to 1 µg/mL (≈ 0.426 to 1.7 µM). It also gave an MIC (C. parapsilosis; [6]) of 1.01 to 2 µg/mL (≈ 1.72 to 3.41 µM), an IC90 [1, 7] of 0.08 µg/mL (≈ 0.136 µM) and an IC90 [1, 8] of 0.08 µg/mL (≈ 0.136 µM). The IC90 (Diplodia maydis (Dm); [9]) was 0.08 µg/mL (≈ 0.136 µM), the IC90 (Diplodia maydis (Dm); [10]) was 0.08 µg/mL (≈ 0.136 µM) and the “Concentration at 90% Inhibition Fm” value [2, 11] was “AA (compound concentration of 0.08 ppm at 90% inhibition of fungal pathogens)”. It also gave an IC90 [2] of 0.08 µg/mL (≈ 0.136 µM), an IC90 [3, 12] of 0.4 µg/mL (≈ 0.682 µM) and an IC90 [3, 13] of 0.4 µg/mL (≈ 0.682 µM). For the same compound, the IC90 [4, 14] was > 50 µg/mL, the IC90 [4, 15] was > 50 µg/mL and the IC90 (Rhizoctonia solani (Rs); [16]) was 0.08 µg/mL (≈ 0.136 µM). The IC90 (Rhizoctonia solani (Rs); [17]) was 0.08 µg/mL (≈ 0.136 µM), the IC90 (Septoria tritici (St); [18]) was 2 µg/mL (≈ 3.41 µM) and the IC90 (Septoria tritici (St); [19]) was 10 µg/mL (≈ 17 µM). For the same compound, the IC50 (fungal (fACC2); Table 2a) was 1 to 5 nM and the IC50 (fungal (fACC2); Table 2b, additional results) was 1 to 5 nM.
In the case of `COc1ccc(F)cc1[C@H](Cn1c(=O)n(C(C)(C)C(=O)NC(C)C)c(=O)c2c(C)c(-n3nccn3)sc21)OC1CCC(=O)CC1` [Compound I-32, (R)-2-(1-(2-(5-fluoro-2-methoxyphenyl)-2-((4-oxocyclo-hexyl)oxy)ethyl)-5-methyl-2,4-dioxo-6-(2H-1,2,3-triazol-2-yl)-1,4-dihydro-thieno[2,3-d]pyrimidin-3(2H)-yl)-N-isopropyl-2-methylpropanamide], the IC50 (human (hACC2); Table 2a) is reported as 5 to 10 nM, the IC50 (human (hACC2); Table 2b, additional results) is reported as 5 to 10 nM and the MIC (C. parapsilosis; [5]) is reported as 0.25 to 1 µg/mL (≈ 0.39 to 1.56 µM). For the same compound, the MIC (C. parapsilosis; [6]) was 0.25 to 1 µg/mL (≈ 0.39 to 1.56 µM), the IC90 [1, 7] was 2 µg/mL (≈ 3.12 µM) and the IC90 [1, 8] was 2 µg/mL (≈ 3.12 µM). The IC90 (Diplodia maydis (Dm); [9]) was 0.08 µg/mL (≈ 0.125 µM), the IC90 (Diplodia maydis (Dm); [10]) was 0.08 µg/mL (≈ 0.125 µM) and the “Concentration at 90% Inhibition Fm” value [2, 11] was “AA (compound concentration of 0.08 ppm at 90% inhibition of fungal pathogens)”. It also gave an IC90 [2] of 0.08 µg/mL (≈ 0.125 µM), an IC90 [3, 12] of 0.4 µg/mL (≈ 0.624 µM) and an IC90 [3, 13] of 0.4 µg/mL (≈ 0.624 µM). For the same compound, the IC90 [4, 14] was > 50 µg/mL, the IC90 [4, 15] was > 50 µg/mL and the IC90 (Rhizoctonia solani (Rs); [16]) was 0.08 µg/mL (≈ 0.125 µM). For the same compound, the IC90 (Rhizoctonia solani (Rs); [17]) was 0.08 µg/mL (≈ 0.125 µM), the IC90 (Septoria tritici (St); [18]) was > 50 µg/mL and the IC90 (Septoria tritici (St); [19]) was > 50 µg/mL.
For `COc1ccc(F)cc1[C@H](Cn1c(=O)n(C(C)(C)C(=O)N2CCCC2)c(=O)c2c(C)c(-n3nccn3)sc21)OC1CCC(=O)CC1` [Compound I-33, (R)-1-(2-(5-fluoro-2-methoxyphenyl)-2-((4-oxocyclo-hexyl)oxy)ethyl)-5-methyl-3-(2-methyl-1-oxo-1-(pyrrolidin-1-yl)propan-2-yl)-6-(2H-1,2,3-triazol-2-yl)thieno[2,3-d]pyrimidine-2,4(1H,3H)-dione], the IC50 (human (hACC2); Table 2a) was 10 to 40 nM, the IC50 (human (hACC2); Table 2b, additional results) was 10 to 40 nM and the MIC (C. parapsilosis; Table 3a, ATCC 22019, 3 replicates, MIC recorded at 48 h, read-out: MIC, C. parapsilosis ATCC 22019) was 0.25 to 1 µg/mL (≈ 0.383 to 1.53 µM). The MIC (C. parapsilosis; Table 3b (additional results), ATCC 22019, 3 replicates, MIC recorded at 48 h, read-out: MIC, C. parapsilosis ATCC 22019) was 1.01 to 2 µg/mL (≈ 1.55 to 3.06 µM), the IC90 ([1]; Collectotrichum graminicola, growth inhibition at 48 hours vs 2% DMSO control, read-out: Concentration at 90% Inhibition Cg) was 0.4 µg/mL (≈ 0.613 µM) and the IC90 ([1]; Collectotrichum graminicola, growth inhibition vs 2% DMSO control at 48 hours, read-out: Concentration at 90% Inhibition Cg) was 0.4 µg/mL (≈ 0.613 µM). For the same compound, the IC90 (Diplodia maydis (Dm); Diplodia maydis, growth inhibition at 48 hours vs 2% DMSO control, read-out: Concentration at 90% Inhibition Dm) was 0.4 µg/mL (≈ 0.613 µM), the IC90 (Diplodia maydis (Dm); Diplodia maydis, growth inhibition vs 2% DMSO control at 48 hours, read-out: Concentration at 90% Inhibition Dm) was 0.4 µg/mL (≈ 0.613 µM) and the IC90 [2, 11] was 0.08 µg/mL (≈ 0.123 µM). The IC90 ([2]; Fusarium moniliforme, growth inhibition vs 2% DMSO control at 48 hours) was 0.08 µg/mL (≈ 0.123 µM), the IC90 ([3]; growth inhibition at 48 hours vs 2% DMSO control, read-out: Concentration at 90% Inhibition Fv) was 0.4 µg/mL (≈ 0.613 µM) and the IC90 ([3]; growth inhibition vs 2% DMSO control at 48 hours, read-out: Concentration at 90% Inhibition Fv) was 0.4 µg/mL (≈ 0.613 µM). The IC90 ([4]; growth inhibition at 48 hours vs 2% DMSO control, read-out: Concentration at 90% Inhibition Pc) was > 50 µg/mL, the IC90 ([4]; growth inhibition vs 2% DMSO control at 48 hours, read-out: Concentration at 90% Inhibition Pc) was > 50 µg/mL and the IC90 (Rhizoctonia solani (Rs); mycelial plugs, growth inhibition at 48 hours vs 2% DMSO control, read-out: Concentration at 90% Inhibition Rs) was 0.4 µg/mL (≈ 0.613 µM). The IC90 (Rhizoctonia solani (Rs); mycelial plugs, growth inhibition vs 2% DMSO control at 48 hours, read-out: Concentration at 90% Inhibition Rs) was 0.4 µg/mL (≈ 0.613 µM), the IC90 (Septoria tritici (St); Septoria tritici, growth inhibition at 48 hours vs 2% DMSO control, read-out: Concentration at 90% Inhibition St) was > 50 µg/mL and the IC90 (Septoria tritici (St); Septoria tritici, growth inhibition vs 2% DMSO control at 48 hours, read-out: Concentration at 90% Inhibition St) was > 50 µg/mL.
